Results: patent US9346809B2 (LEO PHARMA A/S, priority 2009, dated 2016)
Like-named read-outs stand apart in the source and are kept apart here.

Columns and labels:
Format in all cases: biochemical
[1] = target: T1, TYK2 (aa 871-1187, catalytic domain, GST-tag) (Homo sapiens, UniProt P29597); assay: JAK kinase assay (HTRF, phosphorylation of TK substrate-biotin), TYK2; settings: ATP at Km (13 μM)
T1 construct: JAK1 (aa 850-1154) and TYK2 (aa 871-1187) are expressed with an N-terminally fused GST-tag; GST (N); purchased Carna Biosciences, Inc; host or cells: baculovirus expression system
T1 sequence (P29597 871-1187): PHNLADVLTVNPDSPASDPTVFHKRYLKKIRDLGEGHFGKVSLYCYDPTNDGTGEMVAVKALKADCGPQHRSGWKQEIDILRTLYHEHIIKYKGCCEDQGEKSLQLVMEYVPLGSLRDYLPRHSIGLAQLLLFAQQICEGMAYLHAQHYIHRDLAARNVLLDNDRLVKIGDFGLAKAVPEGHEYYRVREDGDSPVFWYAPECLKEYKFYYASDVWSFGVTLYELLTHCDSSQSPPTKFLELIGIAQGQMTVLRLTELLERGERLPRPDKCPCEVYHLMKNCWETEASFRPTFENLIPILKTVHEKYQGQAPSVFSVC
Procedure, shortened: (§1)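 HTRF KinEASE TK format; 1 μM biotinylated peptide, Km ATP: 7 μM (JAK1, 10 mM MgCl2, 50 nM SEB), 4 μM (JAK2), 2 μM (JAK3), 13 μM (TYK2, 50 nM SEB); 5 mM MgCl2 for the latter three. RT 20-30 min, 0.75% DMSO final. Overnight detection, EC50.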

[2] = target: T2, JAK2 (catalytic domain, His-tag) (Homo sapiens, UniProt O60674); assay: JAK kinase assay (HTRF, phosphorylation of TK substrate-biotin), JAK2; settings: ATP at Km (4 μM)
T2 construct: All four purified enzymes contain only the catalytic domain; His (N); purchased Carna Biosciences, Inc; host or cells: baculovirus expression system
T2 sequence (O60674 849-1124 limits assumed): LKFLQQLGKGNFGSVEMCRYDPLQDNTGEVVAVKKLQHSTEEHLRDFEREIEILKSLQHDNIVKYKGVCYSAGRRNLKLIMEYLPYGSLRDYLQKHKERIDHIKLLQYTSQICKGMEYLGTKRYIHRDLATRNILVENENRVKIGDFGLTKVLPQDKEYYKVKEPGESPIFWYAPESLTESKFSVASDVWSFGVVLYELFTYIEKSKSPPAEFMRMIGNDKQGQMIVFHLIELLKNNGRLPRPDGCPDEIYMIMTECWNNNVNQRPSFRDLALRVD
Procedure, shortened: as §1

[3] = target: T3, JAK1 (aa 850-1154, catalytic domain, GST-tag) (Homo sapiens, UniProt P23458); assay: JAK kinase assay (HTRF, phosphorylation of TK substrate-biotin), JAK1; settings: ATP at Km (7 μM)
T3 construct: JAK1 (aa 850-1154) and TYK2 (aa 871-1187) are expressed with an N-terminally fused GST-tag; GST (N); purchased Carna Biosciences, Inc; host or cells: baculovirus expression system
T3 sequence (P23458 850-1154): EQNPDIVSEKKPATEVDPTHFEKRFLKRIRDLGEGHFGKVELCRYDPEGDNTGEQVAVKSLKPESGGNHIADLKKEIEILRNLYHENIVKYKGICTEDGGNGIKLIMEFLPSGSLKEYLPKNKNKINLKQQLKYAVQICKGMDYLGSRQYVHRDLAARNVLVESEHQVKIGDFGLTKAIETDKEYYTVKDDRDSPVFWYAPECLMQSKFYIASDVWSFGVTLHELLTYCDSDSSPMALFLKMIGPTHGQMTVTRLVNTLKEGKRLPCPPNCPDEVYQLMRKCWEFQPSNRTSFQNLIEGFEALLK
Procedure, shortened: as §1

[4] = target: T4, JAK3 (catalytic domain, His-tag) (Homo sapiens, UniProt P52333); assay: JAK kinase assay (HTRF, phosphorylation of TK substrate-biotin), JAK3; settings: ATP at Km (2 μM)
T4 construct: All four purified enzymes contain only the catalytic domain; His (N); purchased Carna Biosciences, Inc; host or cells: baculovirus expression system
T4 sequence (P52333 822-1111 limits assumed): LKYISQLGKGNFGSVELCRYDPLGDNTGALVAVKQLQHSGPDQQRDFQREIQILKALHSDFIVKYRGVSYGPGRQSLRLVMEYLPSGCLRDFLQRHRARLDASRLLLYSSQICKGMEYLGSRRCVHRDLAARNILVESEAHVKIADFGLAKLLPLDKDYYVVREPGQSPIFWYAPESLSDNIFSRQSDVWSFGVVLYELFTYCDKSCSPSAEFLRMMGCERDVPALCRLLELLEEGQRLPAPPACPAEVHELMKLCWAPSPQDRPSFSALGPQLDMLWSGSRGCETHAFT
Procedure, shortened: as §1

[5] = HTRF assay, read-out: TYK2 kinase inhibitory activity (EC50 indicator)
[6] = HTRF assay, read-out: JAK2 kinase inhibitory activity (EC50 indicator)
[7] = HTRF assay, read-out: JAK1 kinase inhibitory activity (EC50 indicator)
[8] = HTRF assay, read-out: JAK3 kinase inhibitory activity (EC50 indicator)
[9] = read-out: TYK2 kinase inhibitory activity (EC50 indicator)
[10] = read-out: JAK2 kinase inhibitory activity (EC50 indicator)
[11] = read-out: JAK1 kinase inhibitory activity (EC50 indicator)
[12] = read-out: JAK3 kinase inhibitory activity (EC50 indicator)
[13] = HTRF assay, read-out: TYK2 kinase inhibitory activity (EC50)
[14] = HTRF assay, read-out: JAK2 kinase inhibitory activity (EC50)
[15] = HTRF assay, read-out: JAK1 kinase inhibitory activity (EC50)
[16] = HTRF assay, read-out: JAK3 kinase inhibitory activity (EC50)

Compound	EC50 [1, 5] [nM]	EC50 [2, 6] [nM]	EC50 [3, 7] [nM]	EC50 [4, 8] [nM]	EC50 [1, 9] [nM]	EC50 [2, 10] [nM]	EC50 [3, 11] [nM]	EC50 [4, 12] [nM]	other results
N#Cc1ccc(C2(C(=O)N3CCN(c4ncnc5[nH]ccc45)CC34CC4)CC2)cc1 [Example 429, 4-{1-[7-(7H-Pyrrolo[2,3-d]pyrimidin-4-yl)-4,7-diaza-spiro[2.5]octane-4-carbonyl]-cyclopropyl}-benzonitrile]	100 to 500	< 100	< 100	< 100	–	–	–	–	–
CS(=O)(=O)c1cccc(C(=O)N2CCN(c3ncnc4[nH]ccc34)CC23CC3)c1 [Example 367, (3-Methanesulfonyl-phenyl)-[7-(7H-pyrrolo[2,3-d]pyrimidin-4-yl)-4,7-diaza-spiro[2.5]oct-4-yl]-methanone]	100 to 500	< 100	< 100	100 to 500	–	–	–	–	–
O=C1OCCC1NC(=S)N1[C@@H]2CC[C@H]1CN(c1ncnc3[nH]ccc13)C2 (some centres unmarked) [Example 47, 3-(7H-Pyrrolo[2,3-d]pyrimidin-4-yl)-3,8-diaza-bicyclo[3.2.1]octane-8-carbothioic acid (2-oxo-tetrahydro-furan-3-yl)-amide]	–	–	–	–	> 500	100 to 500	100 to 500	100 to 500	–
N#CCc1ccc(C(=O)N2[C@@H]3CC[C@@H]2CN(c2ncnc4[nH]ccc24)C3)cc1 [Example 175, {4-[3-(7H-Pyrrolo[2,3-d]pyrimidin-4-yl)-3,8-diaza-bicyclo[3.2.1]octane-8-carbonyl]-phenyl}-acetonitrile]	–	–	–	–	> 500	< 100	< 100	100 to 500	–
NS(=O)(=O)c1ccc(NCC(=O)N2CCN(c3ncnc4[nH]ccc34)CC23CC3)cc1 [Example 454, 4-{2-Oxo-2-[7-(7H-pyrrolo[2,3-d]pyrimidin-4-yl)-4,7-diaza-spiro[2.5]oct-4-yl]-ethylamino}-benzenesulfonamide]	–	–	–	–	–	–	–	–	EC50 [1, 13]: 100 to 500 nM; EC50 [2, 14]: < 100 nM; EC50 [3, 15]: < 100 nM; EC50 [4, 16]: 100 to 500 nM
COc1cnc2[nH]ccc2c1N1CCN(C(=O)c2csc3ccccc23)C2(CC2)C1 [Example 289, Benzo[b]thiophen-3-yl-[7-(5-methoxy-1H-pyrrolo[2,3-b]pyridin-4-yl)-4,7-diaza-spiro[2.5]oct-4-yl]-methanone]	> 500	100 to 500	100 to 500	100 to 500	–	–	–	–	–
O=C(c1ccc(-c2ccccc2)cc1)N1CCN(c2ncnc3[nH]ccc23)CC12CC2 [Example 5, Biphenyl-4-yl-[7-(7H-pyrrolo[2,3-d]pyrimidin-4-yl)-4,7-diazaspiro[2.5]oct-4-yl]methanone]	–	–	–	–	> 500	< 100	< 100	100 to 500	–
CCN(CC)S(=O)(=O)N1CCN(c2ncnc3[nH]ccc23)CC12CC2 [Example 459, 7-(7H-Pyrrolo[2,3-d]pyrimidin-4-yl)-4,7-diaza-spiro[2.5]octane-4-sulfonic acid diethylamide]	–	–	–	–	–	–	–	–	EC50 [1, 13]: 100 to 500 nM; EC50 [2, 14]: < 100 nM; EC50 [3, 15]: < 100 nM; EC50 [4, 16]: 100 to 500 nM
Cc1cc(S(N)(=O)=O)ccc1C(=O)N1[C@@H]2CC[C@H]1CN(c1ncnc3[nH]ccc13)C2 [Example 391, 3-Methyl-4-[3-(7H-pyrrolo[2,3-d]pyrimidin-4-yl)-3,8-diaza-bicyclo[3.2.1]octane-8-carbonyl]-benzenesulfonamide]	> 500	100 to 500	100 to 500	100 to 500	–	–	–	–	–
Cc1cc2[nH]c(C(=O)N3[C@@H]4CC[C@H]3CN(c3ncnc5[nH]ccc35)C4)cc2cc1F [Example 110, (5-Fluoro-6-methyl-1H-indol-2-yl)-[3-(7H-pyrrolo[2,3-d]pyrimidin-4-yl)-3,8-diaza-bicyclo[3.2.1]oct-8-yl]-methanone]	–	–	–	–	> 500	100 to 500	< 100	100 to 500	–
COc1cc(S(N)(=O)=O)ccc1C(=O)N1[C@@H]2CC[C@H]1CN(c1ncnc3[nH]ccc13)C2 [Example 393, 3-Methoxy-4-[3-(7H-pyrrolo[2,3-d]pyrimidin-4-yl)-3,8-diaza-bicyclo[3.2.1]octane-8-carbonyl]-benzenesulfonamide]	100 to 500	< 100	< 100	< 100	–	–	–	–	–
